The text below walks through data of PMC3724117 (British Journal of Pharmacology, 2013).

Like-named read-outs stand apart in the source and are kept apart here.

In experiment [1] the test system is histamine-evoked Ca^2+ signals. The format is cell-based, human. As to conditions: for IC50: Homo sapiens.
The target of experiment [2] is EP2 receptor. As to conditions: 2000, cited from earlier work; for pKD, EP2 receptor: reported affinity, ref Abramovitz et al.
The target in experiment [3] is EP2 receptors (Homo sapiens, UniProt P43116). The experiment is classed as cell-based.
Experiment [4] relates to AC activity. The experiment in a line: cAMP accumulation in human ASMC, HitHunter cAMP HS+ assay. The experiment is classed as cell-based. A general note: Changes in cAMP serve as a functional read-out for many G protein-coupled receptors.
The test system of experiment [5] is EP4 receptor. As to conditions: cited from earlier work.
The test system of experiment [6] is human ASMC. The experiment can be described thus: Direct effect of drug alone on [Ca2+]i in human ASMC. The format is cell-based.
Experiment [7] concerns the target EP4 receptors (Homo sapiens, UniProt P35408). The format is cell-based.
Experiment [8] has as its system intracellular Ca^2+ stores. The experiment can be described thus: Ca2+ content of the intracellular stores of human ASMC. As to conditions: 2-APB, stores assessed with ionomycin 1 μM. The experiment is classed as cell-based.
Experiment [9] deals with AC activity. The experiment in a line: cAMP accumulation in human ASMC, 3H-adenine-labelling assay. The format is cell-based. As to conditions: read-out: pEC50 for cAMP accumulation (converted).
Where [10] appears, read: read-out: [Ca2+]i, pIC50, Control (converted).

Sequence of EP4 receptors (P35408 whole entry): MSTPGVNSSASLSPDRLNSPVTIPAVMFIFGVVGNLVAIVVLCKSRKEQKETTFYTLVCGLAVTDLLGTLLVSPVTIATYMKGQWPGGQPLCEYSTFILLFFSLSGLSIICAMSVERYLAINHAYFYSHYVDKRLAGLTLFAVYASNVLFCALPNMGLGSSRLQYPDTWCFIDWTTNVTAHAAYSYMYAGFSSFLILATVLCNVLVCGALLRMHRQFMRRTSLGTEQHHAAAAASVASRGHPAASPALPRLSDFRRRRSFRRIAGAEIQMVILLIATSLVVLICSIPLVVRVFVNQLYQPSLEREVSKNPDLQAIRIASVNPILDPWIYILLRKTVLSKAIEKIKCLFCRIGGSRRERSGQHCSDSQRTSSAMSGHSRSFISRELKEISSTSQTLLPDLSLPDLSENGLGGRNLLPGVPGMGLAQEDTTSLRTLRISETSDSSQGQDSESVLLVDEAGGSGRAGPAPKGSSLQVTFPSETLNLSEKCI
Sequence of EP2 receptors (P43116 whole entry): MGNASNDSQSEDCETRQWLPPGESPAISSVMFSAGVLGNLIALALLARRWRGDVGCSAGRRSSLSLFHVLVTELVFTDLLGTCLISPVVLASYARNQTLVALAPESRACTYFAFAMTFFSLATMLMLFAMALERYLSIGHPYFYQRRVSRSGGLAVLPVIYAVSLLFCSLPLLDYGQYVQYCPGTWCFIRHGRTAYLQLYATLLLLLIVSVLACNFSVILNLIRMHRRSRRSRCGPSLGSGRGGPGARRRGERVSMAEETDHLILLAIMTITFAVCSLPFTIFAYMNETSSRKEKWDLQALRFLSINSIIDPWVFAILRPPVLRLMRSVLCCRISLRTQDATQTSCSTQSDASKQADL

For `O=C(O)CCCCCC[C@H]1C(=O)NC(=O)N1CCC(O)C1CCCCC1` (stereo partly drawn) [BW 245C, (4S)-(3-[(3R,S)-3-cyclohexyl-3-hydroxypropyl]-2,5-dioxo)-4-imidazolidineheptanoic acid], the “effect on histamine-evoked Ca2+ signals” value in experiment [1] (BW 245C 10 nM, histamine 3 μM) is given as “no effect”.

One may read the Kd as the equilibrium constant for the complex coming apart. A lower Kd goes with tighter binding. With `CC(C)Oc1ccc2c(=O)c3cc(C(=O)O)ccc3oc2c1` [AH6809, 6-isopropoxy-9-oxoxanthene-2-carboxylic acid], in experiment [1] (AH6809 30 μM, histamine 3 μM), the “ΔpIC50 (pIC50 control − pIC50 +antagonist) of L902,688” value is −0.01 ± 0.27, the “ΔpIC50 (pIC50 control − pIC50 +antagonist) of PGE2” value is 0.62 ± 0.13 and the “ΔpIC50 (pIC50 control − pIC50 +antagonist) of butaprost” value is reported as 1.12 ± 0.15. Besides, the “pKD, EP2 receptor” value in experiment [2] was 5.9. In addition, the Kd in experiment [3] is 2510 nM.

As for `CC(C)OC(=O)CCC/C=C\C[C@@H]1[C@@H](CC[C@@H](O)CCc2ccccc2)[C@H](O)C[C@@H]1O` [latanoprost], the “effect on histamine-evoked Ca2+ signals” value in [1] (latanoprost 100 nM, histamine 3 μM) is recorded as “no effect”.

`CCCC1([C@H](O)C/C=C/[C@H]2[C@H](O)CC(=O)[C@@H]2CCCCCCC(=O)OC)CCC1` [Butaprost]: the IC50 in experiment [1] (setting [10]) is 6.03 nM. For the same compound, the “difference between functional pIC50 and published binding affinity (pKD)” value in experiment [1] (pIC50 8.22 vs pKD 7.04) is “more than 10 fold”. Besides, in experiment [2] (ref Narumiya et al., 1999, Abramovitz et al.), the “affinity for human EP2 receptors relative to PGE2 (lower)” value was around 20 fold. In addition, in [2], the “pKD, EP2 receptor” value is listed as 7.04. For the same compound, the “EC50 for cAMP accumulation relative to PGE2 (higher)” value in experiment [4] (butaprost vs PGE2) was around 10 fold.

`O=C1CC[C@H](/C=C/[C@@H](O)C(F)(F)c2ccccc2)N1CCCCCCc1nn[nH]n1` [L902,688, 5-[(1E,3R)-4,4-difluoro-3-hydroxy-4-phenyl-1-buten-1-yl]-1-[6-(2H-tetrazol-5R-yl)hexyl]-2-pyrrolidinone]: the “[Ca2+]i, pIC50, Control” value in [1] (histamine 3 μM, agonist alone) is 9.52 ± 0.25 (3) /M. In addition, the “cAMP, pEC50, Control” value in experiment [4] (HitHunter HS+ assay, 5 min) is 7.76 ± 0.11 (3) /M. In [5] (ref Supporting Information Table S4), the “affinity for EP4 receptors relative to PGE2 (greater)” value is “approximately twofold”. In [5] (reported affinity, ref Young et al., 2004), the “pKD, EP4 receptor” value is given as 9.4.

Regarding `COc1ccc([C@H]2N[C@H](C(=O)O)Cc3c2[nH]c2ccccc32)cc1CN1CCN(c2ccccc2F)CC1` [trans-Ned-19, (1R,3S)-1-[3-[[4-(2-fluorophenyl)piperazin-1-yl]methyl]-4-methoxyphenyl]-2,3,4,9-tetrahydro-1H-pyrido[3,4-b]indole-3-carboxylic acid], in [1] (trans-Ned-19 1 μM, 5 min), the “effect on responses to histamine” value was “unaffected”.

Turning to `Cn1c(=O)c2c(ncn2C)n(C)c1=O` [caffeine], the “effect on [Ca2+]i” value in experiment [6] (caffeine 10 mM) is on record as “no effect”.

Consider `CC(C)[C@@]1(O)[C@@H](OC(=O)c2ccc[nH]2)[C@@]2(O)[C@@]3(C)C[C@]4(O)O[C@@]5([C@H](O)[C@@H](C)CC[C@]35O)[C@@]2(O)[C@@]14C` [ryanodine, Ryanodine], for which the “effect on responses to histamine” value in experiment [1] (ryanodine 100 μM, 5 min) is “unaffected”.

Consider `COc1ccc2c(c1)CC[C@@H]1[C@@H]2CC[C@]2(C)[C@@H](NCCCCCCN3C(=O)CCC3=O)CC[C@@H]12` [U73343, 1-[6-[[(17β)-3-methoxyestra-1,3,5(10)-trien-17-yl]amino]hexyl]-2,5-pyrrolidinedione], for which the “effect on Ca2+ signals evoked by histamine” value in experiment [1] (U73343 ≤10 μM, histamine 100 μM) is “no effect”.

Take `CCOc1c2c(c(OCC)c3ccccc13)C(=O)N(c1ccc(CC(=O)NS(=O)(=O)c3ccccc3)cc1)C2` [GW627368X, 2-[4-(4,9-diethoxy-3-oxo-1H-benzo[f]isoindol-2-yl)phenyl]-N-phenylsulfonylacetamide]: in experiment [1] (GW627368X 1 μM, histamine 3 μM), the “ΔpIC50 (pIC50 control − pIC50 +antagonist) of L902,688” value came to 2.20 ± 0.28, the “ΔpIC50 (pIC50 control − pIC50 +antagonist) of PGE2” value amounted to 0.24 ± 0.08 and the “ΔpIC50 (pIC50 control − pIC50 +antagonist) of butaprost” value is on record as −0.21 ± 0.14. The compound further gave a Kd in [7] of 6.31 nM.

`NCCOB(c1ccccc1)c1ccccc1` [2-APB, 2-aminoethoxydiphenyl borate]: the “effect on Ca2+ signals evoked by histamine” value in [1] (2-APB 5 min before, histamine 3 μM or 1 mM, Ca2+-free HBS) was “concentration-dependent inhibition”. In experiment [8], the “effect on Ca2+ content of the intracellular stores” value is “substantial loss”.

Regarding `COc1ccc2c(c1)c(CC(=O)O)c(C)n2C(=O)c1ccc(Cl)cc1` [indomethacin, Indomethacin], the “effect on histamine-evoked Ca2+ signals” value in [1] (indomethacin 10 μM, 5 min) was “nor indomethacin, an inhibitor of cyclooxygenases (Figure 1F), had any effect”.

`COc1ccc2c(c1)CC[C@@H]1[C@@H]2CC[C@]2(C)[C@@H](NCCCCCCN3C(=O)C=CC3=O)CC[C@@H]12` [U73122, 1-[6-[[(17β)-3-methoxyestra-1,3,5(10)-trien-17-yl]amino]hexyl]-1H-pyrrole-2,5-dione]: the IC50 in [1] (read-out: pIC50 for inhibition of Ca2+ signals evoked by histamine (converted)) is 1740 nM.

For the compound `CCCCC[C@H](O)/C=C/[C@H]1[C@H](O)CC(=O)[C@@H]1C/C=C\CCCC(=O)O` [PGE2, Prostaglandin E2], the IC50 in experiment [1] (setting [10]) was 0.537 nM. The EC50 in experiment [9] was 214 nM. Besides, the “effect on [Ca2+]i” value in [6] (PGE2 alone (10 μM)) is given as “no effect”.

As to `CS(=O)(=O)NC(=O)CCC/C=C\C[C@H]1C(=O)C[C@@H](O)[C@@H]1/C=C/[C@@H](O)COc1ccccc1` [Sulprostone, sulprostone], the “effect on histamine-evoked Ca2+ signals” value in [1] (sulprostone 1 μM, histamine 3 μM) was “no effect”.
